Results published in paper PMC9697187 (Viruses, 2022).
Read-outs that look alike come from different tables or passages of the source.

Key:
[1] = tested on: FIPV serotype I (Black I); test: Colorimetric CPE bioassay; assay type: cell-based, feline infectious peritonitis virus (FIPV); details: for EC50: read-out: EC50 against Black I (serotype I FIPV)
[2] = tested on: FIPV serotype II (WSU-79-1146); test: Colorimetric CPE bioassay; assay type: cell-based, feline infectious peritonitis virus (FIPV); details: for EC50: read-out: EC50 against WSU-79-1146 (serotype II FIPV)
[3] = tested on: FIPV serotype II (WSU-79-1146); test: Combined anticoronaviral therapy; assay type: cell-based, feline infectious peritonitis virus (FIPV); details: WSU-79-1146, CRFK cells, alone and combined determined concurrently
[4] = Single dose pharmacokinetics of orally administered MPV in SPF cats; assay type: in vivo, cat
[5] = tested on: feline infectious peritonitis (FIP); details: cited from earlier work; for Cats clinically cured of FIP: retrospective study, treated with either GC376 or GS-441524
in vivo = test: in vivo; design: species or system cat; details: male; for Cmax: Cmax of GS-441524
FIPV II = details: cited from earlier work
[6] = design: method as in not printed at the place; details: read-out: Cmax of GS-441524; subcutaneously administered at 5 mg/kg, cats; ref not given; cited from earlier work
CEM/C1 human cell line = details: cited from earlier work
CRFK cells = details: cited from earlier work
[7] = Alphacoronavirus 1, FCWF-4 CU cells, MOI 0.1, 72 h, monotherapy
[8] = Alphacoronavirus 1, CRFK cells, MOI 0.1, 72 h, monotherapy
[9] = Alphacoronavirus 1, read-out: EC50, combination experiment (C) remdesivir and nirmatrelvir
[10] = Alphacoronavirus 1, read-out: EC50, combination experiment (A) nirmatrelvir and MPV
[11] = male, serum, po, 10 mg/kg, 10 mg/kg oral molnupiravir, mean of 3 cats
[12] = serum MPV, 10 mg/kg oral molnupiravir, mean of 3 cats, 10 mg/kg
[13] = clinical trial, naturally occurring FIP
[14] = owner survey, unlicensed GS-441524
[15] = FCWF-4 CU cells, MOI 0.1, 72 h, monotherapy

CCC(CC)COC(=O)[C@H](C)N[P@](=O)(OC[C@H]1O[C@@](C#N)(c2ccc3c(N)ncnn23)[C@H](O)[C@@H]1O)Oc1ccccc1 [RDV, remdesivir]
EC50 [1, 7]: 0.03 µM | EC50 [2, 8]: 0.18 µM | EC50 ([3]; Alphacoronavirus 1, read-out: EC50, combination experiment (B) GC376 and remdesivir): 0.181 µM | EC50 [3, 9]: 6.42 µM

CC(C)C(=O)OC[C@H]1O[C@@H](n2ccc(NO)nc2=O)[C@H](O)[C@@H]1O [MPV, molnupiravir]
EC50 [1, 7]: 0.016 µM | EC50 ([2]; Alphacoronavirus 1, CRFK, 72 h): 0.7 µM | EC50 [3, 10]: 0.693 µM | Detection of MPV in serum over 24 h ([4]; 10 mg/kg oral MPV): not detected after the 12-h time point | Peak detection time point in serum, aggregate of three cats ([4]; 10 mg/kg oral MPV, Figure 3B): approximately 1.5 h | CL/F [4, 11]: 347 L/h/kg | MRT [4, 11]: 4.6 h | AUC(0-t) ([4]; male, serum, po, 10 mg/kg, 10 mg/kg oral molnupiravir, mean of 3 cats, read-out: AUC0-t of MPV): 0.085 µM·h | Vd/F ([4]; male, serum, po, 10 mg/kg, 10 mg/kg oral molnupiravir, mean of 3 cats, read-out: Vz/F of MPV): 881 L/kg | AUC ([4]; male, serum, po, 10 mg/kg, serum MPV, 10 mg/kg oral molnupiravir, individual cat): 0.0396 µg·h/mL | AUC(0-t) ([4]; male, serum, po, 10 mg/kg, serum MPV, 10 mg/kg oral molnupiravir, mean of 3 cats, read-out: AUC (AUC0-t) of MPV): 0.0275 µg·h/mL | AUC (AUC0-t) of MPV [4, 12]: 0.0275 µg·h/mL | Cmax [4, 12]: 0.04 µM | Cmax of MPV [4, 12]: 0.0142 µg/mL

CC(C)C[C@H](NC(=O)OCc1ccccc1)C(=O)N[C@@H](C[C@@H]1CCNC1=O)C(O)S(=O)(=O)[O-].[Na+] (stereo partly shown) [GC376]
Cats in remission [5, 13]: seven of the 20 | Cats clinically cured of FIP [5]: 29 of 30

N#C[C@@]1(c2ccc3c(N)ncnn23)O[C@H](CO)[C@@H](O)[C@H]1O [GS-441524]
EC50 [1, 7]: 0.02 µM | EC50 ([2]; Alphacoronavirus 1, CRFK, 72 h): 0.61 µM | concentration at 24 h (in vivo; cat, GS-441524 remaining in plasma 24 h post-treatment): 0.22 to 2 µM | AUC(0-t) (in vivo; iv, 7 mg/kg, AUC0-24 of GS-441524): 45 µM·h | Cmax (in vivo; iv, 7 mg/kg): 6.9 µM | AUC(0-t) (in vivo; po, 25 mg/kg, AUC (AUC0-24) of GS-441524): 89.7 µg·h/mL | Cmax (in vivo; po, 25 mg/kg): 13.3 µg/mL | half-life (in vivo; po, 25 mg/kg, T1/2 of GS-441524): 4.5 h | Cats healthy and disease free at the time of publication [5, 13]: 25 of 31 | Cats with successful resolution of disease ([5]; neurological FIP, escalating dose): 3 of 4 | Cats with neurological or ocular signs successfully treated ([5]; owner survey responses): 161 of 169 | Cats alive at the time of publication ([5]; owner survey, unlicensed GS-441524, n = 380): 96.7% | Cats considered cured [5, 14]: 54.0% | Cats still being monitored in the 12-week observation period [5, 14]: 43.3% | Cats clinically cured of FIP [5]: 29 of 30 | EC50 (FIPV II; previously reported, read-out: EC50 against serotype II FIPV): 0.78 µM | Cmax [6]: ~10 µM

O=c1nc(NO)ccn1[C@@H]1O[C@H](CO)[C@@H](O)[C@H]1O [NHC, β-D-N^4-hydroxycytidine]
EC50 [1, 15]: 0.05 µM | EC50 against Black I expressed as ([1]; equivalent of 0.05 μM): 0.0129 mg/L | EC50 ([2]; CRFK cells, MOI 0.1, 72 h, monotherapy): 0.11 µM | Serum exposure relative to the NHC EC50 ([4]; in vivo): greater than the NHC EC50 | Kel of NHC ([4]; in vivo, po, 10 mg/kg): 0.2 h⁻¹ | CC50 (CEM/C1 human cell line): 7.5 µM | Cytotoxicity in CRFK cells (CRFK cells): cytotoxicity has also been documented

CC(C)C[C@H](NC(=O)OCc1ccccc1)C(=O)N[C@@H](CC1CCNC1=O)C(O)S(=O)(=O)O (stereo partly shown) [GC376]
EC50 [1, 15]: 0.01 µM | EC50 ([3]; read-out: EC50, combination experiment (B) GC376 and remdesivir): 0.406 µM | EC50 (FIPV II; prior study, read-out: EC50 against FIPV II): 0.9 µM

CC(C)(C)[C@H](NC(=O)C(F)(F)F)C(=O)N1C[C@H]2[C@@H]([C@H]1C(=O)N[C@H](C#N)C[C@@H]1CCNC1=O)C2(C)C [nirmatrelvir]
EC50 ([1]; Alphacoronavirus 1, 72 h): 0.016 µM | EC50 [2, 8]: 1.31 µM | Differential efficacy, EC50 for FIPV I relative to FIPV II ([2]; Black I vs WSU-79-1146): ~100 fold | EC50 [3, 10]: 1.31 µM | EC50 [3, 9]: 2.94 µM
